In brackets after ≈: the same amount, converted by molar mass. Where two headings read alike, the source gives them in different places.
What was measured:
[1] = tested on: Str. pneumoniae; test: MIC in Nutrient Broth (Table III); format: cell-based; settings: Streptococcus pneumoniae, 10^-3 dilution of overnight broth culture, 45% AAB, 5% serum, 50% broth
Source text: (§1) Organism in Nutrient Broth
(§2) *45% AAB 5% serum 50% broth listed above,
(§3) **Dilution of overnight broth culture

[2] = tested on: Str. pyogenes; test: MIC in Nutrient Broth (Table III); format: cell-based; settings: Streptococcus pyogenes, 10^-3 dilution of overnight broth culture, 45% AAB, 5% serum, 50% broth
Source text: as §1, §2, §3

[3] = tested on: Ent. cloacae; test: MIC in Nutrient Broth (Table III); format: cell-based; settings: Enterobacter cloacae, Ent. cloacae (10^-4)
Source text: as §1, §3

[4] = tested on: E. coli Juhl; test: MIC in Nutrient Broth (Table III); format: cell-based; settings: Escherichia coli; E. coli Juhl (10^-4)
Source text: as §1, §3

[5] = tested on: K. pneumoniae; test: MIC in Nutrient Broth (Table III); format: cell-based; settings: Klebsiella pneumoniae
Source text: as §1, §3

[6] = tested on: S. aureus Smith; test: MIC in Nutrient Broth (Table III); format: cell-based; settings: Staphylococcus aureus, S. aureus Smith (10^-4)
Source text: as §1, §3

[7] = tested on: S. aureus BX1633; test: MIC in Nutrient Broth (Table III); format: cell-based; settings: Staphylococcus aureus
Source text: as §1, §3

[8] = tested on: E. coli; test: MIC in Nutrient Broth (Table III); format: cell-based; settings: Escherichia coli; E. coli (10^-4)
Source text: as §1, §3

[9] = tested on: Sal. enteritidis; test: MIC in Nutrient Broth (Table III); format: cell-based; settings: Salmonella enterica; Sal. enteritidis (10^-4)
Source text: as §1, §3

[10] = tested on: Ps. aeruginosa; test: MIC in Nutrient Broth (Table III); format: cell-based; settings: Pseudomonas aeruginosa
Source text: as §1, §3

[11] = tested on: S. aureus Meth.-Res.; test: MIC in Nutrient Broth (Table III); format: cell-based; settings: Staphylococcus aureus, S. aureus Meth.-Res. (10^-3), read-out: MIC
Source text: as §1, §3

[12] = tested on: Ser. marcescens; test: MIC in Nutrient Broth (Table III); format: cell-based; settings: Serratia marcescens; Ser. marcescens (10^-4)
Source text: as §1, §3

[13] = tested on: Pr. mirabilis; test: MIC in Nutrient Broth (Table III); format: cell-based; settings: Proteus mirabilis; Pr. mirabilis (10^-4)
Source text: as §1, §3

[14] = tested on: Pr. morganii; test: MIC in Nutrient Broth (Table III); format: cell-based; settings: Morganella morganii
Source text: as §1, §3

[15] = in vivo; for hydrolysis of the ester: po
Experimental: (§4) Only the latter are biologically active per se. Also, both original ester and parent penicillin were measured.

[16] = in vivo; set-up: species or system mice; settings: mouse, po, 50 mg/kg
[17] = tested on: Ps. aeruginosa; test: MIC against various organisms (Table I); format: cell-based; settings: Pseudomonas aeruginosa, read-out: minimum inhibitory concentration
[18] = tested on: Str. pyogenes; test: MIC against various organisms (Table I); format: cell-based; settings: Streptococcus pyogenes; Str. pyogenes + 5% serum; read-out: minimum inhibitory concentration
[19] = tested on: Pr. mirabilis; test: MIC against various organisms (Table I); format: cell-based; settings: Proteus mirabilis, read-out: minimum inhibitory concentration
[20] = tested on: Ser. marcescens; test: MIC against various organisms (Table I); format: cell-based; settings: Serratia marcescens, read-out: minimum inhibitory concentration
[21] = tested on: E. coli; test: MIC against various organisms (Table I); format: cell-based; settings: Escherichia coli, read-out: minimum inhibitory concentration
[22] = tested on: D. pneumoniae; test: MIC against various organisms (Table I); format: cell-based; settings: Streptococcus pneumoniae; D. pneumoniae + 5% serum; read-out: minimum inhibitory concentration
[23] = tested on: Sal. enteritidis; test: MIC against various organisms (Table I); format: cell-based; settings: Salmonella enterica, read-out: minimum inhibitory concentration
[24] = tested on: S. aureus Smith; test: MIC against various organisms (Table I); format: cell-based; settings: Staphylococcus aureus, read-out: minimum inhibitory concentration
[25] = tested on: S. aureus BX1633; test: MIC against various organisms (Table I); format: cell-based; settings: Staphylococcus aureus
[26] = tested on: E. coli Juhl; test: MIC against various organisms (Table I); format: cell-based; settings: Escherichia coli, read-out: minimum inhibitory concentration
[27] = tested on: Pr. morganii; test: MIC against various organisms (Table I); format: cell-based; settings: Morganella morganii, read-out: minimum inhibitory concentration
[28] = tested on: K. pneumoniae; test: MIC against various organisms (Table I); format: cell-based; settings: Klebsiella pneumoniae, read-out: minimum inhibitory concentration
[29] = tested on: S. aureus; test: MIC against various organisms (Table I); format: cell-based; settings: Staphylococcus aureus, read-out: minimum inhibitory concentration
[30] = Bioassay of amoxicillin from the ester; settings: 20 mg. ester in 10 ml. of 50/50 acetone/pH 7.0 buffer
[31] = Oral absorption in man, BL-P1780 Study 101; settings: for Cmax: saliva
Experimental: as §4
Three formulations were each administered once orally to six (6) healthy adult male subjects in BL-P1780 Study 101 as follows:
A. BL-P1780, 500 mg. (of amoxicillin-equivalent activity) as two 250 mg. buffered tablets.
B. BL-P1780, 500 mg. (an amoxicillin-equivalent activity) as two 250 mg. buffered tablets with 3.5 g. sodium bicarbonate being taken five minutes prior to the adminstration of BL-P1780.
C. Amoxicillin, 500 mg. as two 250 mg. capsules.
1. To investigate the human safety and tolerance of single 500 mg. doses of BL-P1780.
2. To determine the effect of intragastric buffering with sodium bicarbonate on the absorption of BL-P1780.
3. To compare amoxicillin plasma and saliva concentrations and urinary excretion between BL-P1780 and amoxicillin.

[32] = second of three lines, read-out: MIC
[33] = K. pneumoniae (10^-4), first of two lines, read-out: MIC
[34] = BX1633, S. aureus BX1633 (10^-3), read-out: MIC
[35] = K. pneumoniae, first of two lines
[36] = man, oral 500 mg., six subjects

CC1(C)S[C@@H]2[C@H](NC(=O)[C@H](N)c3ccc(O)cc3)C(=O)N2[C@H]1C(=O)O [Amoxicillin Trihydrate]
MIC [1]: 0.016 µg/mL | MIC [2]: 0.016 µg/mL | MIC ([3]; first of three lines): > 125 µg/mL | MIC [3, 32]: 63 µg/mL | MIC ([3]; third of three lines): 125 µg/mL | MIC [4]: 1 µg/mL | MIC [5]: > 125 µg/mL | MIC [5, 33]: 0.25 µg/mL | MIC [6]: 0.13 µg/mL | MIC ([7]; BX1633): > 125 µg/mL | MIC [7, 34]: 16 µg/mL | MIC [8]: 16 µg/mL | MIC [9]: 0.25 µg/mL | MIC [10]: > 125 µg/mL | MIC ([11]; 28° C.): 32 µg/mL | MIC ([11]; 37° C.): 63 µg/mL | MIC [12]: 32 µg/mL | MIC [13]: 0.25 µg/mL | MIC [14]: > 125 µg/mL

COCOC(=O)[C@@H]1N2C(=O)[C@@H](N3C(=O)[C@@H](c4ccccc4)NC3(C)C)[C@H]2SC1(C)C [BL-P1761, methoxymethyl ester of hetacillin]
hydrolysis of the ester [15]: hydrolyze eventually to their parent penicillins

CC1(C)S[C@@H]2[C@H](N3C(=O)[C@@H](c4ccccc4)NC3(C)C)C(=O)N2[C@H]1C(=O)O [Compound 3, D-6-(2,2-dimethyl-5-oxo-4-phenyl-1-imidazolidinyl)penicillanic acid]
concentration at 0.5 h [16]: 2000 ng/mL | concentration at 2 h [16]: 1100 ng/mL | concentration at 3.5 h [16]: 500 ng/mL

CC1(C)S[C@@H]2[C@H](NC(=O)[C@H](N)c3ccccc3)C(=O)N2[C@H]1C(=O)O [Cpd. A, ampicillin]
MIC [17]: > 125 µg/mL | MIC [18]: 0.004 µg/mL | MIC [19]: 0.16 µg/mL (≈ 0.458 µM) | MIC [20]: 32 µg/mL (≈ 91.6 µM) | MIC [21]: 32 µg/mL (≈ 91.6 µM) | MIC [22]: 0.004 µg/mL | MIC [23]: 0.13 µg/mL (≈ 0.372 µM) | MIC ([24]; S. aureus Smith + 50% serum): 0.06 µg/mL | MIC ([24]; S. aureus Smith): 0.03 µg/mL (≈ 0.0859 µM) | MIC ([25]; BX1633, read-out: minimum inhibitory concentration, S. aureus BX1633, first of two lines): 125 µg/mL (≈ 358 µM) | MIC ([25]; BX1633, read-out: minimum inhibitory concentration, S. aureus BX1633, second of two lines): > 125 µg/mL | MIC [26]: 1 µg/mL (≈ 2.86 µM) | MIC [27]: > 125 µg/mL | MIC [28, 35]: 0.3 µg/mL (≈ 0.859 µM) | MIC [28]: 125 µg/mL (≈ 358 µM) | MIC ([29]; first of three lines): 125 µg/mL (≈ 358 µM) | MIC ([29]; second of three lines): 125 µg/mL (≈ 358 µM) | MIC ([29]; third of three lines): > 125 µg/mL | concentration at 0.5 h [16]: 3300 ng/mL | concentration at 1 h [16]: 2100 ng/mL | concentration at 2 h [16]: 900 ng/mL | concentration at 3.5 h [16]: 500 ng/mL

COCOC(=O)[C@@H]1N2C(=O)[C@@H](NC(=O)[C@H](N)c3ccc(O)cc3)[C@H]2SC1(C)C [Example 5, methoxymethyl ester of amoxicillin]
bioassay of amoxicillin [30]: 1968 µg/mL | bioassay of amoxicillin, percent of theory [30]: about 110 % of theory

COCOC(=O)[C@@H]1N2C(=O)[C@@H](N3C(=O)[C@@H](c4ccc(O)cc4)NC3(C)C)[C@H]2SC1(C)C [Example 8, methoxymethyl 6-[D-(-)-2,2-dimethyl-4-(4-hydroxyphenyl)-5-oxo-1-imidazolyl]-penicillanate]
MIC ([17]; Ps. aeruginosa): > 125 µg/mL | MIC [18]: 0.004 µg/mL | MIC [1]: 0.008 µg/mL (≈ 0.0178 µM) | MIC [2]: 0.008 µg/mL (≈ 0.0178 µM) | MIC [19]: 0.16 µg/mL (≈ 0.356 µM) | need of intragastric buffering for bioavailability or tissue distribution ([31]; in vivo, po): not necessary | MIC [20]: 32 µg/mL (≈ 71.2 µM) | MIC [21]: 32 µg/mL (≈ 71.2 µM) | MIC [22]: 0.004 µg/mL | MIC [23]: 0.13 µg/mL (≈ 0.289 µM) | MIC ([3]; first of three lines, read-out: MIC): 125 µg/mL (≈ 278 µM) | MIC [3, 32]: 125 µg/mL (≈ 278 µM) | MIC ([3]; third of three lines, read-out: MIC): 63 µg/mL (≈ 140 µM) | MIC [4]: 1 µg/mL (≈ 2.22 µM) | MIC [5, 33]: 0.13 µg/mL (≈ 0.289 µM) | MIC ([5]; K. pneumoniae (10^-4), second of two lines, read-out: MIC): > 125 µg/mL | MIC [6]: 0.13 µg/mL (≈ 0.289 µM) | MIC ([7]; BX1633, S. aureus BX1633 (10^-2), read-out: MIC): > 125 µg/mL | MIC [7, 34]: 16 µg/mL (≈ 35.6 µM) | MIC [8]: 32 µg/mL (≈ 71.2 µM) | MIC [9]: 1 µg/mL (≈ 2.22 µM) | MIC ([10]; Ps. aeruginosa (10^-4), read-out: MIC): > 125 µg/mL | MIC ([11]; 28° C.): 63 µg/mL (≈ 140 µM) | MIC ([11]; 37° C.): 125 µg/mL (≈ 278 µM) | MIC [12]: > 125 µg/mL | MIC [13]: 0.25 µg/mL (≈ 0.556 µM) | MIC ([14]; Pr. morganii (10^-4), read-out: MIC): > 125 µg/mL | MIC ([24]; S. aureus Smith + 50% serum): 0.06 µg/mL | MIC ([24]; S. aureus Smith): 0.06 µg/mL (≈ 0.133 µM) | MIC ([25]; BX1633, S. aureus BX1633, first of two lines, read-out: minimum inhibitory concentration): 125 µg/mL (≈ 278 µM) | MIC ([25]; BX1633, S. aureus BX1633, second of two lines, read-out: minimum inhibitory concentration): > 125 µg/mL | MIC [26]: 1 µg/mL (≈ 2.22 µM) | MIC ([27]; Pr. morganii): 32 µg/mL (≈ 71.2 µM) | tissue distribution of amoxicillin from BL-P1780 over that of ampicillin, amoxicillin or ampicillin from sarpicillin [15]: markedly improved tissue distribution | hydrolysis of the ester [15]: hydrolyze eventually to their parent penicillins | MIC [28, 35]: 0.16 µg/mL (≈ 0.356 µM) | MIC ([28]; K. pneumoniae, second of two lines): > 125 µg/mL | MIC ([29]; third of three lines): > 125 µg/mL | concentration at 0.5 h [16]: 4800 ng/mL | concentration at 1 h [16]: 3500 ng/mL | concentration at 2 h [16]: 1700 ng/mL | concentration at 3.5 h [16]: 700 ng/mL

CC1(C)S[C@@H]2[C@H](NC(=O)[C@H](N)c3ccc(O)cc3)C(=O)N2[C@H]1C(=O)O [amoxicillin, D-6-(p-hydroxy-α-aminophenylacetamido)penicillanic acid]
Cmax ([31]; human, po, 500 mg, maximum saliva amoxicillin level, man, oral 500 mg.): 60 ng/mL | Cmax ([31]; human, po, 500 mg, mean peak saliva amoxicillin level, man, oral 500 mg.): 30 ng/mL | dose excreted at 24 h ([31]; human, urine, po, 500 mg): 50.9% | time course of saliva amoxicillin levels ([31]; man, oral 500 mg.): delayed and erratic | subjects found to be slow absorbers [31, 36]: Two of the six subjects | subjects with detectable saliva amoxicillin levels [31, 36]: only 3 of the 6 subjects

Source: US4185015A, “Methoxymethyl 6-[D-2,2-dimethyl-4-(4-hydroxyphenyl)-5-oxo-1-imidazolyl]penicillanate” (priority 1977, dated 1980)
